Assay results reported in patent US20140349989A1, “COMPOUNDS AND THERAPEUTIC USES THEREOF” (Alzheimer's Institute of America, priority 2011, published 2014).

Experiment: Cytotoxicity Assay (HCT116, CellTiter-Glo)
Assay type: cell-based
Details: human, HCT116 cell cytotoxicity IC50
Procedure: HCT116 cells were seeded in 96 well plates (Greiner Bio-One, Monroe, N.C.) and allowed to settle overnight. Test compound dissolved in dimethyl sulfoxide (DMSO) was added and drug incubation proceeded for 72 hours. When applicable, a 1000× solution of nicotinic acid (NA; Sigma-Aldrich, St. Louis, Mo.) dissolved in water was generated, and 1×NA (10 μM final concentration) was added at the same time as the test compound. After 72 hour, 50 μL of CellTiter-Glo Luminescent Cell Viability Assay reagent (Promega Corporation, Madison, Wis.) was added to cells in 200 μL of cellular media. After a proscribed incubation period, luminescence was measured using a TopCount NXT plate reader (PerkinElmer, Waltham, Mass.).

Q: For CC(C)(C)OC(=O)N1CCC(n2cc(C#CCCCNC(=O)NCc3cccnc3)c3ccccc32)CC1 [Compound 41, tert-Butyl 4-[3-(5-{[(pyridin-3-ylmethyl)carbamoyl]ami-no}pent-1-yn-1-yl)-1H-indol-1-yl]piperidine-1-carboxylate], which IC50 at 72 h is on record?
A: The IC50 at 72 h was at least 100 nM.

Q: For O=C(NCc1cccnc1)Nc1ccc(-n2nc(C#CCN3CCOCC3)c3ccccc32)cc1 [Compound 42, 1-(4-{3-[3-(Morpholin-4-yl)prop-1-yn-1-yl]-1H-indazol-1-yl}phenyl)-3-(pyridin-3-ylmethyl)urea], which IC50 at 72 h is on record?
A: The IC50 at 72 h was under 100 nM.

Q: For O=C(NCc1cccnc1)Nc1ccc(-c2cn(S(=O)(=O)c3cccnc3)c3ccccc23)cc1 [Compound 43, 1-(Pyridin-3-ylmethyl)-3-{4-[1-(pyridin-3-ylsulfonyl)-1H-indol-3-yl]phenyl} urea], which IC50 at 72 h is on record?
A: Its IC50 at 72 h is under 100 nM.

Q: Which IC50 at 72 h does the source give for Nc1nn(-c2ccc(NC(=O)NCc3cccnc3)cc2)c2ccccc12 [Compound 44, 1-[4-(3-aminoindazol-1-yl)phenyl]-3-(3-pyridylmethyl)urea] here?
A: Its IC50 at 72 h is at least 100 nM.

Q: With Cc1c(C(=O)N2CCC(n3ccnc3)CC2)c2ccccc2n1-c1ccc(NC(=O)NCc2cccnc2)cc1 [Compound 48, 1-[4-(3-{[4-(1H-Imidazol-1-yl)piperidin-1-yl]carbonyl}-2-methyl-1H-indol-1-yl)phenyl]-3-(pyridin-3-ylmethyl)urea] as the molecule, how does the IC50 at 72 h read?
A: Its IC50 at 72 h is at least 100 nM.

Q: Which IC50 at 72 h does the source give for O=C(NCc1cccnc1)Nc1ccc(-n2cc(CCN3CCCCC3)c3ccccc32)cc1 [Compound 49, 1-(4-{3-[2-(Piperidin-1-yl)ethyl]-1H-indol-1-yl}phenyl)-3-(pyridin-3-ylmethyl)urea] here?
A: The IC50 at 72 h was under 100 nM.

Q: Which IC50 at 72 h does the source give for Cc1c(-c2ccccc2)c(C(=O)NCCCN2CCCCC2)nn1-c1ccc(NC(=O)NCc2cccnc2)cc1 [Compound 50, 5-Methyl-4-phenyl-N-[3-(piperidin-1-yl)propyl]-1-(4-{[(pyridin-3-ylmethyl)carbamoyl]ami-no}phenyl)-1H-pyrazole-3-carboxamide] here?
A: The IC50 at 72 h was under 100 nM.

Q: For O=C(NCc1ccc(Cl)nc1)Nc1ccc(-n2nc(N3CCN(C4CCCC4)CC3)c3ccccc32)cc1 [Compound 55, 1-[(6-Chloro-pyridin-3-yl)methyl]-3-{4-[3-(4-cyclopentyl-piperazin-1-yl)-1H-indazol-1-yl]phenyl}urea], which IC50 at 72 h is on record?
A: Its IC50 at 72 h is at least 100 nM.

Q: For O=C(NCc1cccnc1)Nc1ccc(-n2nc(N3CCC(CN4CCOCC4)CC3)c3ccccc32)cc1 [Compound 62, 1-(4-{3-[4-(Morpholin-4-ylmethyl)piperidin-1-yl]-1H-indazol-1-yl}phenyl)-3-(pyridin-3-ylmethyl)urea], which IC50 at 72 h is on record?
A: Its IC50 at 72 h is under 100 nM.

Q: With O=C(NCc1cncs1)Nc1ccc(-n2cc(CCN3CCOCC3)c3ccccc32)cc1 [Compound 63, 1-(4-{3-[2-(Morpholin-4-yl)ethyl]-1H-indol-1-yl}phenyl)-3-(1,3-thiazol-5-ylmethyl) urea] as the molecule, how does the IC50 at 72 h read?
A: Its IC50 at 72 h is at least 100 nM.

Same assay, conditions: human, HCT116 cells, 72 hours drug incubation, CellTiter-Glo luminescence; read-out: HCT116 cell cytotoxicity IC50

Q: Which IC50 at 72 h does the source give for O=C(NCc1cccnc1)Nc1ccc(-n2cc(-c3ccccc3OCCCN3CCOCC3)cn2)cc1 [Compound 30, 1-[4-(4-{2-[3-(Morpholin-4-yl)propoxy]phenyl}-1H-pyrazol-1-yl)phenyl]-3-(pyridin-3-ylmethyl)urea] here?
A: The IC50 at 72 h was under 100 nM.

Q: For O=C(NCCCCCn1cc(C(=O)N2CCC(N3CCCCC3)CC2)c2ccccc21)NCc1cccnc1 [Compound 31, 1-{5-[3-(1,4′-Bipiperidin-1′-yl-carbonyl)-1H-indol-1-yl]pentyl}-3-(pyridin-3-ylmethyl)urea], which IC50 at 72 h is on record?
A: Its IC50 at 72 h is under 100 nM.

Q: With O=C(NCCCCCn1cc(C(=O)N2CCC(N3CCC(F)(F)CC3)CC2)c2ccccc21)NCc1cccnc1 [Compound 32, 1-(5-{3-[(4,4-Difluoro-1,4′-bipiperidin-1′-yl)carbonyl]-1H-indol-1-yl}pentyl)-3-(pyridin-3-ylmethyl)urea] as the molecule, how does the IC50 at 72 h read?
A: Its IC50 at 72 h is under 100 nM.

Q: For O=C(NCc1cccnc1)N[C@H]1CC[C@@H](n2cc(C(=O)N3CCN(C4CCCCC4)CC3)c3ccccc32)CC1 [Compound 34, 1-(cis-4-{3-[(4-Cyclohexyl-piperazin-1-yl)carbonyl]-1H-indol-1-yl}cyclohexyl)-3-(pyridin-3-ylmethyl)urea], which IC50 at 72 h is on record?
A: Its IC50 at 72 h is at least 100 nM.

Q: For O=C(NCCCn1cc(C(=O)N2CCC(N3CCCCC3)CC2)c2ccccc21)NCc1cccnc1 [Compound 36, 1-{3-[3-(1,4′-Bipiperidin-1′-ylcarbonyl)-1H-indol-1-yl]propyl}-3-(pyridin-3-ylmethyl)urea], which IC50 at 72 h is on record?
A: The IC50 at 72 h was at least 100 nM.

Q: With O=C(NCc1cccnc1)N[C@H]1CC[C@H](n2cc(C(=O)N3CCN(C4CCCCC4)CC3)c3ccccc32)CC1 [Compound 37, 1-(trans-4-{3-[(4-Cyclohexyl-piperazin-1-yl)carbonyl]-1H-indol-1-yl}cyclohexyl)-3-(pyridin-3-ylmethyl)urea] as the molecule, how does the IC50 at 72 h read?
A: The IC50 at 72 h was under 100 nM.

Q: For O=C(NCc1cccnc1)Nc1ccc(-n2cc(CCN3CC[C@@H](F)C3)c3ccccc32)cc1 [Compound 38, 1-[4-(3-{2-[(3R)-3-Fluoropyrrolidin-1-yl]ethyl}-1H-indol-1-yl)phenyl]-3-(pyridin-3-ylmethyl)urea], which IC50 at 72 h is on record?
A: Its IC50 at 72 h is under 100 nM.

Q: Which IC50 at 72 h does the source give for O=C(NCCCCC(=O)c1cn(C2CCN(CCF)CC2)c2ccccc12)NCc1cccnc1 [Compound 39] here?
A: Its IC50 at 72 h is under 100 nM.

Q: For O=C(NCc1cccnc1)Nc1ccc(-n2cc(C3CCN(CC(F)F)CC3)c3ccccc32)cc1 [Compound 40, 1-(4-{3-[1-(2,2-Difluoroethyl)piperidin-4-yl]-1H-indol-1-yl}phenyl)-3-(pyridin-3-ylmethyl)urea], which IC50 at 72 h is on record?
A: Its IC50 at 72 h is under 100 nM.

Q: Which IC50 at 72 h does the source give for CCOC(=O)c1cn(CCCCNC(=O)NCc2cccnc2)c2ccccc12 [Compound 45, Ethyl 1-(4-{[(pyridin-3-ylmethyl)carbamoyl]amino}butyl)-1H-indole-3-carboxylate] here?
A: The IC50 at 72 h was under 100 nM.

Q: For Cc1c(Cc2ccccc2)c(C(=O)N2CCC(N3CCCCC3)CC2)nn1-c1ccc(NC(=O)NCc2cccnc2)cc1 [Compound 46, 1-{4-[4-Benzyl-3-(1,4′-bipiperidin-1′-ylcarbonyl)-5-methyl-1H-pyrazol-1-yl]phenyl}-3-(pyridin-3-ylmethyl)urea], which IC50 at 72 h is on record?
A: Its IC50 at 72 h is under 100 nM.

Q: For O=C(NCc1cccnc1)Nc1ccc2c(c1)c(C(=O)NCCCN1CCOCC1)cn2Cc1ccccc1 [Compound 51, 1-Benzyl-N-[3-(morpholin-4-yl)propyl]-5-{[(pyridin-3-ylmethyl)carbamoyl]ami-no}-1H-indole-3-carboxamide], which IC50 at 72 h is on record?
A: The IC50 at 72 h was at least 100 nM.

Q: With O=C(NCc1cccnc1)Nc1ccc(-n2cc(-c3nccn3CCN3CCCCC3)c3ccccc32)cc1 [Compound 52, 1-[4-(3-{1-[2-(Piperidin-1-yl)ethyl]-1H-imidazol-2-yl}-1H-indol-1-yl)phenyl]-3-(pyridin-3-ylmethyl)urea] as the molecule, how does the IC50 at 72 h read?
A: Its IC50 at 72 h is under 100 nM.

Q: For C[C@@H]1CN(CCc2cn(-c3ccc(NC(=O)NCc4cccnc4)cc3)c3ccccc23)C[C@H](C)O1 [Compound 53, 1-[4-(3-{2-[(2R,6S)-2,6-Dimethyl-morpholin-4-yl]ethyl}-1H-indol-1-yl)phenyl]-3-(pyridin-3-ylmethyl)urea], which IC50 at 72 h is on record?
A: Its IC50 at 72 h is under 100 nM.

Q: For COc1cccc(-c2cn(-c3ccc(NC(=O)NCc4cccnc4)cc3)nc2C(=O)NCCCN2CCCCC2)c1 [Compound 54, 4-(3-Methoxyphenyl)-N-[3-(piperidin-1-yl)propyl]-1-(4-{[(pyridin-3-ylmethyl)carbamoyl]ami-no}phenyl)-1H-pyrazole-3-carboxamide], which IC50 at 72 h is on record?
A: The IC50 at 72 h was under 100 nM.

Q: Which IC50 at 72 h does the source give for O=C(NCCCCn1cc(C(=O)N2CCC(N3CCCCC3)CC2)c2ccccc21)NCc1cccnc1 [Compound 57, 1-{4-[3-(1,4′-Bipiperidin-1′-yl-carbonyl)-1H-indol-1-yl]butyl}-3-(pyridin-3-ylmethyl) urea] here?
A: Its IC50 at 72 h is under 100 nM.

Q: With CC(=O)N1CCC(n2cc(C(=O)CCCCNC(=O)NCc3cccnc3)c3ccccc32)CC1 [Compound 58, 1-{5-[1-(1-Acetylpiperidin-4-yl)-1H-indol-3-yl]-5-oxo-pentyl}-3-(pyridin-3-ylmethyl)urea] as the molecule, how does the IC50 at 72 h read?
A: Its IC50 at 72 h is at least 100 nM.

Q: For O=C(NCCCn1cc(C(=O)NCCCN2CCCC2)c2ccccc21)NCc1cccnc1 [Compound 59, 1-(3-{[(Pyridin-3-ylmethyl)carbamoyl]amino}propyl)-N-[3-(pyrrolidin-1-yl)propyl]-1H-indole-3-carboxamide], which IC50 at 72 h is on record?
A: The IC50 at 72 h was at least 100 nM.

Q: For O=C(NCc1cccnc1)Nc1ccc(-n2cc(-c3nccn3CCC3CCNCC3)c3ccccc32)cc1 [Compound 60, 1-[4-(3-{1-[2-(Piperidin-4-yl)ethyl]-1H-imidazol-2-yl}-1H-indol-1-yl)phenyl]-3-(pyridin-3-ylmethyl)urea], which IC50 at 72 h is on record?
A: Its IC50 at 72 h is at least 100 nM.

Q: For CN1CCN(C2CCN(C(=O)c3cn(CCCCCNC(=O)NCc4cccnc4)c4ccccc34)CC2)CC1 [Compound 64, 1-[5-(3-{[4-(4-Methylpiperazin-1-yl)piperidin-1-yl]carbonyl}-1H-indol-1-yl)pentyl]-3-(pyridin-3-ylmethyl) urea], which IC50 at 72 h is on record?
A: Its IC50 at 72 h is under 100 nM.

Q: For CCOC(=O)c1cn(CCCCCNC(=O)NCc2cccnc2)c2ccccc12 [Compound 65, Ethyl 1-(5-{[(pyridin-3-ylmethyl)carbamoyl]amino}pentyl)-1H-indole-3-carboxylate], which IC50 at 72 h is on record?
A: Its IC50 at 72 h is under 100 nM.

Q: With O=C(NCc1cccnc1)Nc1ccc(N2CC3(CCN(C(=O)OCc4ccccc4)CC3)c3ccccc32)cc1 [Compound 66, Benzyl 1-(4-{[(pyridin-3-ylmethyl)carbamoyl]ami-no}phenyl)-1,2-dihydro-1′H-spiro[indole-3,4′-piperidine]-1′-carboxyylate] as the molecule, how does the IC50 at 72 h read?
A: The IC50 at 72 h was under 100 nM.

Q: For CC(C)(CCCCNC(=O)NCc1cccnc1)n1cc(C(=O)N2CCN(C3CCCCC3)CC2)c2ccccc21 [Compound 67, 1-(5-{3-[(4-Cyclohexyl-piperazin-1-yl)carbonyl]-1H-indol-1-yl}-5-methylhexyl)-3-(pyridin-3-ylmethyl)urea], which IC50 at 72 h is on record?
A: The IC50 at 72 h was under 100 nM.

Q: With O=C(NCc1cccnc1)Nc1ccc2c(C(=O)N3CCC(N4CCCCC4)CC3)cn(Cc3ccccc3)c2c1 [Compound 68, 1-[1-Benzyl-3-(1,4′-bipiperidin-1′-yl-carbonyl)-1H-indol-6-yl]-3-(pyridin-3-ylmethyl)urea] as the molecule, how does the IC50 at 72 h read?
A: Its IC50 at 72 h is at least 100 nM.
